Measured values published in patent US20260174682A1, “GAMMA-AMINOBUTYRIC ACID DERIVATIVE COMPRISING POLYCYCLIC STRUCTURE, METHOD FOR PREPARING SAME, AND USE THEREOF” (ZHONGSHAN INSTITUTE FOR DRUG DISCOVERY, SIMM, CAS., priority 2022, published 2026).
Marks after values point to notes of the source that are not given here.

Tests used:
motor functions of rats = assay: Rotarod test of impact on motor functions of rats; details: male SD rats; for impact on rotarod behaviors of the rats: gavage 10 mg/kg (calculated by free base); for impact on rotarod behaviors of the rats / impact on rotarod behaviors of the rats (impacted proportion): FIG. 7; for impact on rotarod behaviors of the rats (impacted proportion): gavage 30 mg/kg (calculated by free base)
Description: A negative vehicle control, a positive drug control group (pregabalin, (PGB), 10 mg/kg, 30 mg/kg) were set, and a test group (including (+)—I-3 p-toluenesulfonate at 10 mg/kg (calculated by free base), (+)—I-4 p-toluenesulfonate at 10 mg/kg (calculated by free base), (+)—I-3 p-toluenesulfonate at 30 mg/kg (calculated by free base) and (+)—I-4 p-toluenesulfonate at 30 mg/kg (calculated by free base)) were set. Male SD rats with the body weight of 200-250 g were selected, with 10 animals in each administration group. AYLS-31A fatigue rota-rod (Shanghai Xinruan Information Technology Co., Ltd.) was used as rotarod test equipment, and a rotation speed was set at a constant speed of 6 rpm. A screening test was carried out on the first day. Tail tips of the rats were pinched, placed on the rotarod, and released the same after the rats maintained balance on the rotarod and moved along with the rotarod. The falling number of the rats within the next 1 min was recorded and counted. The rats that fell for 3 times within 1 min were excluded, which were not used for subsequent drug evaluation. A drug evaluation test was carried out on the second day. The rats were fasted for 8 h before the test, then a rotarod test was carried out once to serve as a time point (BL) before administration, and then administration was performed by gavage. […] The falling number of the rats within 1 min was recorded and counted. The rats falling for 3 times within one min were regarded as having “motor function impairments” caused by drug toxicity. The “motor function impairment” degree (rotarod fall) of each administration group at a specific time point was calculated as a proportion of a number of the animals with “motor function impairments” in the group to a total number of the animals in the group.
The rotarod test is a classic test for measuring the damage of compounds to motor functions of animals.

[1] = tested on: mouse model with subcutaneous injection of pentylenetetrazole (sc-PTZ); assay: Antiepileptic effect in mouse model with subcutaneous injection of pentylenetetrazole (sc-PTZ); assay type: in vivo; details: for Clonic seizure incidence / Convulsive seizure incidence / Generalized clonic seizure incidence / Mortality / Tonic seizure incidence: sc-PTZ 100 mg/kg, ICR mice, intraperitoneal 30 mg/kg (own compounds calculated by free base), 1 h observation; for latent periods of generalized clonic seizures, tonic seizures and death: 30 mg/kg (calculated by free base), FIG. 6
Description: A negative vehicle control group, a positive drug control group (pregabalin and gabapentin) and a test group of the compounds of the present application were set. Male ICR mice with a body weight of 22±2 g were selected. […] After fasted for 12 h, the mice were administered the compounds of the present application or the control drugs, and then subcutaneously injected with pentylenetetrazole (PTZ) to induce epilepsy seizure behaviors after a certain time interval (2 h for pregabalin, 1 h for gabapentin, and 3 h for the compounds of the present application). In an induction model, pentylenetetrazole (PTZ) was dissolved in normal saline and administered to the mice through the way of subcutaneous injection (10 mL/kg, administration dose 100 mg/kg). After the injection of PTZ, behavioral observations on the mice were conducted for 1 h, and the latent periods and numbers of the mice with convulsive seizures, clonic seizures, tonic seizures and death after the injection of PTZ were recorded.
Statistical method: Protection rates and mortality of different administration groups were separately compared with those of the vehicle control group to carry out a Fisher's exact test. The seizure time and the latent periods were analyzed by one-way ANOVA.

[2] = Pharmacokinetic test on rats; assay type: in vivo, rat; details: male SD rats; for t1/2: data based on free base
Description: Male SD rats were fasted for 12 h before the test and then allowed to drink water freely. The compound (+)—I-3 p-toluenesulfonate or (+)—I-4 p-toluenesulfonate of the present application was dissolved with a 10% distilled water solution of 1,2-propanediol and then administered orally or intravenously to the male SD rats, with 3 rats in each group. At 15 min, 30 min, 1 hour, 2 hours, 3 hours, 4 hours, 6 hours, 8 hours and 24 hours after the oral administration or at 5 min, 15 min, 30 min, 1 hour, 2 hours, 3 hours, 4 hours, 6 hours, 8 hours and 24 hours after the intravenous administration, 0.2 mL of blood was taken from retroocular venous plexuses, placed in an EDTA-K2 test tube, centrifuged at 11,000 rpm for 5 min to separate plasma, and frozen in a refrigerator at −20° C. The concentration of a drug prototype was determined by HPLC-ESI-MS according to a verified method, and pharmacokinetic parameters were calculated by WinNonLin.

[3] = gavage vs intravenous injection
[4] = intravenous injection, 1.10 / 1.09 mg/kg

| SMILES | impact on rotarod behaviors of the rats (motor functions of rats) | impact on rotarod behaviors of the rats (impacted proportion) (motor functions of rats) | Clonic seizure incidence [1] | Convulsive seizure incidence [1] | Generalized clonic seizure incidence [1] | Mortality [1] | Tonic seizure incidence [1] | generalized clonic seizures (percent of animals; vehicle 100%) ([1]; sc-PTZ mice, 30 mg/kg) | tonic seizure incidence (percent of animals; vehicle 75%) ([1]; sc-PTZ mice, 30 mg/kg) | latent periods of generalized clonic seizures, tonic seizures and death ([1]; sc-PTZ mice) | further results |
| --- | --- | --- | --- | --- | --- | --- | --- | --- | --- | --- | --- |
| CC(C)C[C@H](CN)CC(=O)O [Pregabalin] | no significant impact | obvious toxic responses | 8/8 | 8/8 | 5/8 | 1/8* | 1/8** | 62.5% | 12.5% | significantly prolong | time of maximum impact on the rotarod behaviors after the administration (motor functions of rats; gavage 30 mg/kg): 4 h; mortality (percent of animals; vehicle 75%) ([1]; sc-PTZ mice, 30 mg/kg): 12.5% |
| Cc1ccc(S(=O)(=O)O)cc1.NCC1(CC(=O)O)CC2C3C=CC(C3)C21 (single isomer, unassigned; (+)) [(+)-I-4 p-toluenesulfonate] | no significant impact | smaller than that in the PGB group | 10/10 | 10/10 | 6/10 | 3/10 | 2/10 | 60% | 20% | significantly prolong | F (%) calculated based on AUC0-t [2, 3]: 110.25% (calculated; F (%) calculated based on AUC0-∞ [2, 3]: 110.36% (calculated; t1/2 ([2]; gavage, 2.74 mg/kg ((+)-I-3) / 2.73 mg/kg ((+)-I-4)): 1.08 h; AUC0-t ([2]; gavage, 2.74 / 2.73 mg/kg): 7290 ng·h/mL; AUC0-∞ ([2]; gavage, 2.74 / 2.73 mg/kg): 7380 ng·h/mL; Cmax ([2]; gavage, 2.74 / 2.73 mg/kg): 2350 ng/mL; MRT0-∞ ([2]; gavage, 2.74 / 2.73 mg/kg): 2.38 h; Tmax ([2]; gavage, 2.74 / 2.73 mg/kg): 1 h; t1/2 ([2]; intravenous injection, 1.10 mg/kg ((+)-I-3) / 1.09 mg/kg ((+)-I-4)): 0.94 h; AUC0-t [2, 4]: 2640 ng·h/mL; AUC0-∞ [2, 4]: 2670 ng·h/mL; MRT0-∞ [2, 4]: 1.63 h |
